For nine compounds, AC50 results are on record in ChEMBL document CHEMBL5291721, “A preclinical secondary pharmacology resource illuminates target-adverse drug reaction associations of marketed drugs” (Nat Commun, 2023).

“And” between values parts separate entries of the source, which are not always exact repeats. Identical values can stand only once.

Among the targets are Adenosine receptor A2a (Homo sapiens, UniProt P29274); Vasopressin V2 receptor (Homo sapiens, UniProt P30518); Melanocortin receptor 3 (Homo sapiens, UniProt P41968); Motilin receptor (Homo sapiens, UniProt O43193); D(3) dopamine receptor (Homo sapiens, UniProt P35462).
For test [1], the target named is T1, Alpha-2A adrenergic receptor (Homo sapiens, UniProt P08913).
T1 sequence (P08913 whole entry): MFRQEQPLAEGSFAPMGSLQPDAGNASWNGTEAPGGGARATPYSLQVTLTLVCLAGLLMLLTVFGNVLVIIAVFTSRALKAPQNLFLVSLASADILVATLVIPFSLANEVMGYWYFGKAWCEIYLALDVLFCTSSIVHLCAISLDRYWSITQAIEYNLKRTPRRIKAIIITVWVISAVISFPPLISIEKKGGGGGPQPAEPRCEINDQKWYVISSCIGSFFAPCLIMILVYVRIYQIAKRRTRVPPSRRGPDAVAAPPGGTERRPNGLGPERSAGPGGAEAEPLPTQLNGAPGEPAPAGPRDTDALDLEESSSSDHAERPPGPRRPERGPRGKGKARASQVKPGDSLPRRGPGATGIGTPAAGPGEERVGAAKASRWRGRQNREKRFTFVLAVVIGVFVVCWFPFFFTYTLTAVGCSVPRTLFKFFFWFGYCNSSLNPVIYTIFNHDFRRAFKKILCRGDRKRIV
Format: functional, cell-based.

Test [2] concerns the target T2, Type-1 angiotensin II receptor (Homo sapiens, UniProt P30556).
T2 sequence (P30556 whole entry): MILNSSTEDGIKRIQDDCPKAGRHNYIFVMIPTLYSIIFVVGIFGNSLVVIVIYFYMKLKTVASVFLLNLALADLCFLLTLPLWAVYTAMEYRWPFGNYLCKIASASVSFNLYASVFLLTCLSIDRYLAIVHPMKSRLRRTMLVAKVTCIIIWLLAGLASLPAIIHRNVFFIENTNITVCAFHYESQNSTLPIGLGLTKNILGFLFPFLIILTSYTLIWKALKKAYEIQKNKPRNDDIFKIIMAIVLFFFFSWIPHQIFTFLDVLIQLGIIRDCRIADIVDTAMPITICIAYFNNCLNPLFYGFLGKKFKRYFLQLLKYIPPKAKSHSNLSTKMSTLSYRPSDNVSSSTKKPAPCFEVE

The target in another test is T3, B2 bradykinin receptor (Homo sapiens, UniProt P30411).
T3 sequence (P30411 whole entry): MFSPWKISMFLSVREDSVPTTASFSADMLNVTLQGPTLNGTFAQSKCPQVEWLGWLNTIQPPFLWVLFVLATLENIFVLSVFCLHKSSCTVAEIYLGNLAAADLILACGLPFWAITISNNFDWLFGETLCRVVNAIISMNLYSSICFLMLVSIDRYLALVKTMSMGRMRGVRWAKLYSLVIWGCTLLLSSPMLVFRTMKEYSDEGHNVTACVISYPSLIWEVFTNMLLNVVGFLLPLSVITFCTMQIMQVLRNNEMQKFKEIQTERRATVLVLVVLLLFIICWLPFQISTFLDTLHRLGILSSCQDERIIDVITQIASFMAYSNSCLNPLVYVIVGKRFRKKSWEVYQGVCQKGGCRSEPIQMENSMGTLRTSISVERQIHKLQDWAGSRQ

For test [3], the target named is Neuronal acetylcholine receptor subunit alpha-4 (Homo sapiens, UniProt P43681).
Chain of Neuronal acetylcholine receptor subunit alpha-4 (P43681 whole entry): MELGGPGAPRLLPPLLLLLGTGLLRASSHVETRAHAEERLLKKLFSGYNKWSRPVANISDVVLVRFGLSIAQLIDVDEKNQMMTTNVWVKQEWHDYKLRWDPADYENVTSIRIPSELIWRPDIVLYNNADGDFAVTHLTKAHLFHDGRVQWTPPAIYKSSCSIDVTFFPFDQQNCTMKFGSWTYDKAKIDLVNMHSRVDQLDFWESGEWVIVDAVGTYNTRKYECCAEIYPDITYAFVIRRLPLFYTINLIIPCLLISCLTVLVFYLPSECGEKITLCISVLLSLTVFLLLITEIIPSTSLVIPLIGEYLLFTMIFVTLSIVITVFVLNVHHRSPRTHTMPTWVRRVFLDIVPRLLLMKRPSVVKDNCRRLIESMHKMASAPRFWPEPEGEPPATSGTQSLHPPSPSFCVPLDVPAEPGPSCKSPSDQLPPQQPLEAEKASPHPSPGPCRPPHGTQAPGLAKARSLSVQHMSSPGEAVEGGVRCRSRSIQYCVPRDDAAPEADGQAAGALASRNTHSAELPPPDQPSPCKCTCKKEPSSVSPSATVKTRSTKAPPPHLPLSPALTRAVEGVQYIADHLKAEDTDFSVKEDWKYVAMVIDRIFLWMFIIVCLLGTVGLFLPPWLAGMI
The target in test [4] is Growth hormone secretagogue receptor type 1 (Homo sapiens, UniProt Q92847).
Chain of Growth hormone secretagogue receptor type 1 (Q92847 whole entry): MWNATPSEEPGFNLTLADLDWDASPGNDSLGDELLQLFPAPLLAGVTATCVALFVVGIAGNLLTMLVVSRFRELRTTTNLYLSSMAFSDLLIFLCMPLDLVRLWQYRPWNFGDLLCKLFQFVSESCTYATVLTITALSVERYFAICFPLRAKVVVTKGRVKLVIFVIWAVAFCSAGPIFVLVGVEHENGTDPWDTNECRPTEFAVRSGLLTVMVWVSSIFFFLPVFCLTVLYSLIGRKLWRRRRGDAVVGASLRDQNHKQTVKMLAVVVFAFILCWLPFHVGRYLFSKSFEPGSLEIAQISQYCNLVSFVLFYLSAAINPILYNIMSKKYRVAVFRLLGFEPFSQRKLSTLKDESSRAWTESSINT
In test [5] the target is Voltage-gated inwardly rectifying potassium channel KCNH2 (Homo sapiens, UniProt Q12809). Format: functional.
Chain of Voltage-gated inwardly rectifying potassium channel KCNH2 (Q12809 whole entry): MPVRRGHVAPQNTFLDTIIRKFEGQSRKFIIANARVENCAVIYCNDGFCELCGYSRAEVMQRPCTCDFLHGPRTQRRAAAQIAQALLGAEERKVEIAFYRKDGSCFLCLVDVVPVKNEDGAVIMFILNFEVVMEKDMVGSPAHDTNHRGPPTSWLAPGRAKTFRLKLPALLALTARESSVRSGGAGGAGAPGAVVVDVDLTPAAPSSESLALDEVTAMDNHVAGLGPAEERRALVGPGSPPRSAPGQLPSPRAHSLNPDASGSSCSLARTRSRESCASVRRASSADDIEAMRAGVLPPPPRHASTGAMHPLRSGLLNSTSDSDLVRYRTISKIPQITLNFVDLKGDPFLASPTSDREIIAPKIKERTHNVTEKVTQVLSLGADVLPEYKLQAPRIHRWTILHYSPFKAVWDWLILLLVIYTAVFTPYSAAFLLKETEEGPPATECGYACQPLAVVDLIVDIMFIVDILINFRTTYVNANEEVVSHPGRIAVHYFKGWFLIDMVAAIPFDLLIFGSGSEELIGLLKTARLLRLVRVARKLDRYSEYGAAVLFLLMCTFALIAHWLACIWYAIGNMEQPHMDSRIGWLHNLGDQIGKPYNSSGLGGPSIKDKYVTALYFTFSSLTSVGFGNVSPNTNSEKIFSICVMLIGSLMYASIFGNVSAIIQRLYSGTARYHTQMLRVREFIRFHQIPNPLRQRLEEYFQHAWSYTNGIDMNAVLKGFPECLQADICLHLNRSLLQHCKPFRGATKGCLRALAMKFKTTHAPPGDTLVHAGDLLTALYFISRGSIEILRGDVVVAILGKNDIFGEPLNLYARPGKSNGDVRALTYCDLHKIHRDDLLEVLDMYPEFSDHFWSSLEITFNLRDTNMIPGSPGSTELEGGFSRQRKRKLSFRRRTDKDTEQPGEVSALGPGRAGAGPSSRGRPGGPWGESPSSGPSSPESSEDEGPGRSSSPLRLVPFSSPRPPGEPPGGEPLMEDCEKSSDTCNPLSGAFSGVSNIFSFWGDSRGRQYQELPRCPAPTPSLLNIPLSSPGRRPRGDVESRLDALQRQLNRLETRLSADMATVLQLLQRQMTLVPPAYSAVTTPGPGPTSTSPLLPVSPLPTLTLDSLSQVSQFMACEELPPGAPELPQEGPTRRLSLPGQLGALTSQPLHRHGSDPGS
Test [6] concerns the target T4, Neuropeptide Y receptor type 1 (Homo sapiens, UniProt P25929).
T4 sequence (P25929 whole entry): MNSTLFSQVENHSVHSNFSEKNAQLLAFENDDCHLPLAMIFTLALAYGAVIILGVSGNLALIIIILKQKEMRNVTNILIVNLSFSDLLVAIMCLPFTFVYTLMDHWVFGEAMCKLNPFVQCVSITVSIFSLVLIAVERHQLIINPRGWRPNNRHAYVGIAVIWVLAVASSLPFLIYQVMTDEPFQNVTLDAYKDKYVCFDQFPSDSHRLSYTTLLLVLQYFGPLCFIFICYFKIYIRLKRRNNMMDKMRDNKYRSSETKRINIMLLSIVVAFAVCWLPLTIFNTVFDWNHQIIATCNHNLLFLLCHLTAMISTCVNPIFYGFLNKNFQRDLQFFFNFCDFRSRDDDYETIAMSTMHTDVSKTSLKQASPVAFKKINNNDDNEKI
To be noted: read-out: AC50.

The target in test [7] is Delta-type opioid receptor (Homo sapiens, UniProt P41143).
Chain of Delta-type opioid receptor (P41143 whole entry): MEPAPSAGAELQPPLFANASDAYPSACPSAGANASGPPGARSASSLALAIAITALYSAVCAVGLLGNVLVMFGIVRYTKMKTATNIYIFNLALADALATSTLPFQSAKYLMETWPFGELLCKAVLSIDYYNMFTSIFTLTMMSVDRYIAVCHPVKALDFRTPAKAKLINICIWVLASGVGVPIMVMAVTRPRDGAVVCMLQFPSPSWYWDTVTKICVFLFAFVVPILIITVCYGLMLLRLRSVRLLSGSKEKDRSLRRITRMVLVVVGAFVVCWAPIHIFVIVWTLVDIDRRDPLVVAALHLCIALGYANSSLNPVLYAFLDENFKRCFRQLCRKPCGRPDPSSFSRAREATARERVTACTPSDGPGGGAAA
For test [8], the target named is Sodium-dependent noradrenaline transporter (Homo sapiens, UniProt P23975).
Chain of Sodium-dependent noradrenaline transporter (P23975 whole entry): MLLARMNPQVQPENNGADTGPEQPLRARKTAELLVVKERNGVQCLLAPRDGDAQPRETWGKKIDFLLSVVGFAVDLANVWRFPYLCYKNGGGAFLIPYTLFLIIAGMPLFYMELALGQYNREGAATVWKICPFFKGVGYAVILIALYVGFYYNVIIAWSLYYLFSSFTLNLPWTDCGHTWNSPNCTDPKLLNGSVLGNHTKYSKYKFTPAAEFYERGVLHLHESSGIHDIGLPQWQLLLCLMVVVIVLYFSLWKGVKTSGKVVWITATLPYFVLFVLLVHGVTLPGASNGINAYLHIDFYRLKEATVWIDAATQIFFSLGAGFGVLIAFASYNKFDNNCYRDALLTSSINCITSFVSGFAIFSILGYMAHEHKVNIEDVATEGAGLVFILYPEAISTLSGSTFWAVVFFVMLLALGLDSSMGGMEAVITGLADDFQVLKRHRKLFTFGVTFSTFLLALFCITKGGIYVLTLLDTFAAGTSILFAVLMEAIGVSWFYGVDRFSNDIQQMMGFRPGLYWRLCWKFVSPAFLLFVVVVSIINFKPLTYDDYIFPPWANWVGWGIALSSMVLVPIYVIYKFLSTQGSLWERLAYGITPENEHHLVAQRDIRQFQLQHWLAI
For test [9], the target named is T5, Amine oxidase [flavin-containing] A (Homo sapiens, UniProt P21397).
T5 sequence (P21397 whole entry): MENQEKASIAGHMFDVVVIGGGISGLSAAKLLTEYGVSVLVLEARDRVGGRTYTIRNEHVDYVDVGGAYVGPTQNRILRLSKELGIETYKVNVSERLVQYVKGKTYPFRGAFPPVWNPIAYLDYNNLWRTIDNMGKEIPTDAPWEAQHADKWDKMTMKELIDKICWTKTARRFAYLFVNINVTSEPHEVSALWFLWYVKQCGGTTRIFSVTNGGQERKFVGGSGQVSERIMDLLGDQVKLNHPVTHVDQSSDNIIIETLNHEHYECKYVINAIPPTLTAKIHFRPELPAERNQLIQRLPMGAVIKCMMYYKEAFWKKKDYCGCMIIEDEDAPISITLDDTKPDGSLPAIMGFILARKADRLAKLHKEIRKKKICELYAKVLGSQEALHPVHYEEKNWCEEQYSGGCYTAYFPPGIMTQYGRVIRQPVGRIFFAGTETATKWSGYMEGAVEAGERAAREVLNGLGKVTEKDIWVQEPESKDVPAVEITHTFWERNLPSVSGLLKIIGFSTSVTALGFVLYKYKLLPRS
Format: functional.
Further: assay procedure not described here.

Chain of Melanocortin receptor 3 (P41968 whole entry): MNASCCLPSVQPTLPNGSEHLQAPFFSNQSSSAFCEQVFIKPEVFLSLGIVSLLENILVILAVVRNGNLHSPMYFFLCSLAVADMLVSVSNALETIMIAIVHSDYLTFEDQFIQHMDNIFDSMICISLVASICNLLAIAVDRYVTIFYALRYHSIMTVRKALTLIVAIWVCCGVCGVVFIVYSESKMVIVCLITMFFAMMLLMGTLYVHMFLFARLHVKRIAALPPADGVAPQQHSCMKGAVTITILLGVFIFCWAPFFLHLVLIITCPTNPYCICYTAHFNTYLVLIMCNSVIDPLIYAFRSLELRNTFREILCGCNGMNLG
Chain of D(3) dopamine receptor (P35462 whole entry): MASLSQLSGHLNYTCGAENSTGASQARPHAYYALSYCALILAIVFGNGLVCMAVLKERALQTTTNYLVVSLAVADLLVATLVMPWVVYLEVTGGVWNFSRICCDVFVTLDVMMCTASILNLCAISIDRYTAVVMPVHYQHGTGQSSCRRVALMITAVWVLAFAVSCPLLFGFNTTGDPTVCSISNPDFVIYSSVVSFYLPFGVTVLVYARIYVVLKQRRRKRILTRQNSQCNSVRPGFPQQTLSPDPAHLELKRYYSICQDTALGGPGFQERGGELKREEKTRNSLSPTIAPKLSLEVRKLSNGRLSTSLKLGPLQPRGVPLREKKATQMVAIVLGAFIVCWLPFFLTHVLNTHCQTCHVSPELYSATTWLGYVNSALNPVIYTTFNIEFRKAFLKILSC
Chain of Adenosine receptor A2a (P29274 whole entry): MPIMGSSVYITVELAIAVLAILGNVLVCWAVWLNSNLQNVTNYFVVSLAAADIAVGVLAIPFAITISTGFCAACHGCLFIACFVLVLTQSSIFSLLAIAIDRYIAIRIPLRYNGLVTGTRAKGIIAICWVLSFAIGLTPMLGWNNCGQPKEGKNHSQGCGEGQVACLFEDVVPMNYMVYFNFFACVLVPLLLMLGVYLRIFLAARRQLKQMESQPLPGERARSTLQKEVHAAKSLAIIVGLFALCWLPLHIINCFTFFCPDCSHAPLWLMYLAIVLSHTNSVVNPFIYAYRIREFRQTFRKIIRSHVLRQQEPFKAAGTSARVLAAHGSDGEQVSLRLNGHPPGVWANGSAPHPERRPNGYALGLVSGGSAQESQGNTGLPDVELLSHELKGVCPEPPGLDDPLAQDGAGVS
Chain of Motilin receptor (O43193 whole entry): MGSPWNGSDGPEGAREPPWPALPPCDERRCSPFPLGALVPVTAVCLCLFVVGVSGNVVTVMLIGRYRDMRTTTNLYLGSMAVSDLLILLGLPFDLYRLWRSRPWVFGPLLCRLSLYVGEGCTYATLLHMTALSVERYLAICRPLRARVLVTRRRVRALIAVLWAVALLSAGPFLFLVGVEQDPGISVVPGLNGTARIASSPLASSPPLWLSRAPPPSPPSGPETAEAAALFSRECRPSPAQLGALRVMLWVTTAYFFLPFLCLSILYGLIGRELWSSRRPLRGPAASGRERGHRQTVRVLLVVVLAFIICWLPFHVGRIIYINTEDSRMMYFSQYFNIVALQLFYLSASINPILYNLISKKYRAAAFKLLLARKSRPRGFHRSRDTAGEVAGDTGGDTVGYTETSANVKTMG

Regarding `Oc1ccc2c(c1)CC[C@H](c1ccccc1)[C@@H]2c1ccc(OCCN2CCCC2)cc1` [LASOFOXIFENE], the half-maximal activity concentration (AC50) – broadly, the midpoint of the concentration-response curve, whichever way the signal moves – is above 30 µM on Adenosine receptor A2a; 10 µM in test [1]; above 30 µM in test [2]; 15 µM on Vasopressin V2 receptor; above 30 µM at B2 bradykinin receptor; above 30 µM in [3]. The AC50 in test [4] worked out at 5.2 µM; in test [5], 0.73 µM; on Melanocortin receptor 3, 11 µM; at Motilin receptor, 2.9 µM; in [6], 25 µM; in test [7] it was 7.2 µM. Also, the AC50 in [8] was 2 µM; in [9], above 30 µM; on D(3) dopamine receptor it was 2.2 µM.
Regarding `CC(C(=O)O)c1ccc(CC2CCCC2=O)cc1` (stereo not given) [LOXOPROFEN], the AC50 (at Adenosine receptor A2a; in test [1]; in test [2]; on Vasopressin V2 receptor; on B2 bradykinin receptor; in [3]) was above 30 µM in each case. Also, the AC50 (in test [4]; in test [5]; on Melanocortin receptor 3; at Motilin receptor; in test [6]; in test [7]) was above 30 µM in each case. Further, the AC50 (in test [8]; in test [9]; at D(3) dopamine receptor) was above 30 µM each time.
As to `C[C@H](Cc1ccc(O)c(O)c1)[C@@H](C)Cc1ccc(O)c(O)c1` [MASOPROCOL], the AC50 was above 30 µM on Adenosine receptor A2a; above 10 µM in [1]; above 10 µM in test [2]; above 10 µM on Vasopressin V2 receptor; above 10 µM at B2 bradykinin receptor; above 30 µM in test [3]. The AC50 in test [4] was above 10 µM; in test [5], above 30 µM; on Melanocortin receptor 3 it was above 30 µM; on Motilin receptor, above 10 µM; in [6] it was above 10 µM; in [7], above 30 µM. Besides, the half-maximal activity concentration (AC50) in test [8] was 20.6 µM and 20 µM (2×); in test [9] it was above 30 µM; on D(3) dopamine receptor it was 1.8 µM.
On to `OC1(c2ccc(Cl)cc2)c2ccccc2C2=NCCN21` (stereo not given) [MAZINDOL], for which the AC50 (on Adenosine receptor A2a; in test [1]; in test [2]; at Vasopressin V2 receptor; on B2 bradykinin receptor; in test [3]) was above 30 µM each time. The AC50 (in test [4]; in [5]; at Melanocortin receptor 3; on Motilin receptor; in [6]; in [7]) was above 30 µM each time. Further, the AC50 in test [8] was 0.027 µM; in test [9], above 30 µM; on D(3) dopamine receptor, above 30 µM.
Take `CC12CC3CC(C)(C1)CC(N)(C3)C2` [MEMANTINE]: the concentration at half-maximal activity (AC50) was above 30 µM on Adenosine receptor A2a; above 10 µM in [1]; above 30 µM in [2]; above 30 µM at Vasopressin V2 receptor; above 30 µM at B2 bradykinin receptor; above 10 µM in test [3]. Further, the concentration at half-maximal activity (AC50) in test [4] was above 30 µM; in test [5] it was above 30 µM; at Melanocortin receptor 3, above 30 µM; on Motilin receptor, above 10 µM; in test [6], above 30 µM; in test [7] it was above 30 µM. The figures for the AC50 (in test [8]; in test [9]; on D(3) dopamine receptor) were above 30 µM, above 10 µM and above 30 µM, respectively.
For `CCOC(=O)C1=C(C)NC(C)=C(C(=O)OC)C1c1cccc([N+](=O)[O-])c1` (stereo not given) [NITRENDIPINE], the AC50 is above 30 µM on Adenosine receptor A2a; above 10 µM in test [1]; above 30 µM in test [2]; above 30 µM on Vasopressin V2 receptor; above 30 µM on B2 bradykinin receptor; above 10 µM in test [3]. In addition, the AC50 in test [4] is above 30 µM; in test [5] it was above 30 µM; on Melanocortin receptor 3 it was above 30 µM; on Motilin receptor it was above 10 µM; in test [6], above 30 µM; in test [7] it was above 30 µM. For the same compound, the AC50 in test [8] is above 30 µM; in [9] it was above 10 µM; at D(3) dopamine receptor, above 30 µM.
Turning to `C#C[C@]1(OC(C)=O)CC[C@H]2[C@@H]3CCC4=C/C(=N/O)CC[C@@H]4[C@H]3CC[C@@]21CC` [NORGESTIMATE], the AC50 on Adenosine receptor A2a was above 30 µM; in test [1] it was above 30 µM; in test [2], 22 µM; on Vasopressin V2 receptor it was above 30 µM; at B2 bradykinin receptor it was above 30 µM; in test [3], above 30 µM. In addition, the AC50 (in test [4]; in test [5]; on Melanocortin receptor 3; on Motilin receptor; in test [6]; in test [7]) was above 30 µM each time. In addition, the AC50 in test [8] was 28 µM; in test [9] it was above 30 µM; at D(3) dopamine receptor it was 29 µM.
For `[H]/N=C(/N)N/C(=N/[H])NCCc1ccccc1` [PHENFORMIN], the AC50 at Adenosine receptor A2a is above 30 µM; in test [1] it was above 10 µM; in [2], above 30 µM; at Vasopressin V2 receptor it was above 30 µM; on B2 bradykinin receptor, above 30 µM; in [3] it was above 10 µM. The concentration at half-maximal activity (AC50) in [4] was above 30 µM; in test [5], above 30 µM; on Melanocortin receptor 3 it was above 30 µM; on Motilin receptor, above 10 µM; in [6], above 30 µM; in test [7], above 30 µM. Also, the figures for the AC50 (in test [8]; in test [9]; at D(3) dopamine receptor) were 18.3 µM, above 30 µM and above 30 µM, respectively.
Regarding `CCCCC1C(=O)N(c2ccccc2)N(c2ccccc2)C1=O` [PHENYLBUTAZONE], the AC50 was above 30 µM on Adenosine receptor A2a; above 10 µM in test [1]; above 30 µM in test [2]; above 30 µM at Vasopressin V2 receptor; above 30 µM on B2 bradykinin receptor; above 30 µM in test [3]. The AC50 (in test [4]; in test [5]; at Melanocortin receptor 3; at Motilin receptor; in [6]; in [7]) was above 30 µM in each case. In addition, the AC50 in [8] was above 30 µM; in test [9], above 10 µM; on D(3) dopamine receptor it was above 30 µM.
